Assay results as given in PubChem BioAssay AID330 (DTP/NCI, 2004).
Where “and” joins values, the source holds several entries; their conditions need not be identical. Equal values may be shown once. Toxic doses and inconclusive results are not listed. Rule for the calls: active = survival T/C of 150% or more; inactive = T/C below 125% in these data. Peptide text beside a SMILES is read from it.

Test system: P388 leukemia ip, CD2F1 mice, survival T/C
Experiment: NCI In Vivo Anticancer Drug Screen. Data for tumor model P388 Leukemia (intraperitoneal) in CD2F1 (CDF1) mice
Conditions: endpoint: median survival time, higher = longer survival
In short: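 Mice carrying the transplanted tumor received test compound or vehicle. Survival was recorded in each group, and the value is the treated-group measurement divided by that of the vehicle-treated control group.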

[1] = dose: 25.0 mg/kg/injection, schedule: Q01DX005 (ip), vehicle: Klucel (hydroxypropylcellulose) (HPC)
[2] = dose: 50.0 mg/kg/injection, schedule: Q01DX005 (ip), vehicle: Klucel (hydroxypropylcellulose) (HPC)
[3] = dose: 100.0 mg/kg/injection, schedule: Q01DX005 (ip), vehicle: Klucel (hydroxypropylcellulose) (HPC)
[4] = dose: 200.0 mg/kg/injection, schedule: Q01DX005 (ip), vehicle: Klucel (hydroxypropylcellulose) (HPC)
[5] = dose: 60.0 mg/kg/injection, schedule: Q01DX005 (ip), vehicle: saline with Tween-80
[6] = dose: 120.0 mg/kg/injection, schedule: Q01DX005 (ip), vehicle: saline with Tween-80
[7] = dose: 240.0 mg/kg/injection, schedule: Q01DX005 (ip), vehicle: saline with Tween-80
[8] = dose: 100.0 mg/kg/injection, schedule: Q04DX003 (ip), vehicle: saline
[9] = dose: 200.0 mg/kg/injection, schedule: Q04DX003 (ip), vehicle: saline

Measured: T/C

C=C1C(=O)OC2C1C(OC(=O)/C(C)=C/C)CC1(C)C(=O)CCC(=C)C21 (centres undefined)
inactive: dose: 12.5 mg/kg/injection, schedule: Q01DX005 (ip), vehicle: Klucel (hydroxypropylcellulose) (HPC) 110 % of control | [1] 104 % of control and 106 % of control and 107 % of control | [2] 106 % of control and 109 % of control and 112 % of control | [3] 109 % of control | dose: 150.0 mg/kg/injection, schedule: Q01DX005 (ip), vehicle: Klucel (hydroxypropylcellulose) (HPC) 107 % of control | [4] 108 % of control and 111 % of control

O=C(CCOCCCOCCC(=O)OCCCBr)OCCCBr
inactive: [2] 102 % of control | [3] 98 % of control | [4] 98 % of control

c1ccc2sc(CN(Cc3nc4ccccc4s3)Cc3nc4ccccc4s3)nc2c1
inactive: dose: 50.0 mg/kg/injection, schedule: Q01DX005 (ip), vehicle: saline with Tween-80 103 % of control | dose: 100.0 mg/kg/injection, schedule: Q01DX005 (ip), vehicle: saline with Tween-80 101 % of control | dose: 200.0 mg/kg/injection, schedule: Q01DX005 (ip), vehicle: saline with Tween-80 100 % of control

S=c1sscc1-c1ccc2ccccc2c1
inactive: dose: 200.0 mg/kg/injection, schedule: Q04DX003 (ip), vehicle: saline with Tween-80 90 % of control | dose: 400.0 mg/kg/injection, schedule: Q04DX003 (ip), vehicle: saline with Tween-80 97 % of control

O=S1(=O)C=C(c2ccccc2)C(c2ccccc2)=C1
inactive: dose: 12.5 mg/kg/injection, schedule: Q04DX003 (ip), vehicle: saline with Tween-80 100 % of control | dose: 25.0 mg/kg/injection, schedule: Q04DX003 (ip), vehicle: saline with Tween-80 100 % of control | dose: 50.0 mg/kg/injection, schedule: Q04DX003 (ip), vehicle: saline with Tween-80 109 % of control

CC(C)C(NC(=O)C(NC(=O)C(CCCN=C(N)N)NC(=O)C(N)CCCCN)C(C)C)C(N)=O (centres undefined) (H-KRVV-NH2; configuration not given here)
inactive: dose: 12.5 mg/kg/injection, schedule: Q01DX009 (ip), vehicle: water 114 % of control | dose: 25.0 mg/kg/injection, schedule: Q01DX009 (ip), vehicle: water 104 % of control | dose: 50.0 mg/kg/injection, schedule: Q01DX009 (ip), vehicle: water 110 % of control | dose: 100.0 mg/kg/injection, schedule: Q01DX009 (ip), vehicle: water 104 % of control | dose: 200.0 mg/kg/injection, schedule: Q01DX009 (ip), vehicle: water 99 % of control

CC(=O)NC1=C(O)C2C(c3ccc(C)cc3)C(C#N)C(=O)N2C1=O (centres undefined)
inactive: dose: 100.0 mg/kg/injection, schedule: Q01DX001 (ip), vehicle: saline 105 % of control | dose: 200.0 mg/kg/injection, schedule: Q01DX001 (ip), vehicle: saline 97 % of control | dose: 400.0 mg/kg/injection, schedule: Q01DX001 (ip), vehicle: saline 99 % of control

O=C(CCc1nc2ccccc2[nH]1)C1Cc2ccccc2C1=O (centres undefined)
inactive: [5] 103 % of control | [6] 104 % of control | [7] 103 % of control

COc1ccc(/C=N/N2CN(C(C)C(=O)O)B(NC34CC5CC(CC(C5)C3)C4)N=C2N)cc1OC (centres undefined)
inactive: [5] 104 % of control | [6] 99 % of control | [7] 93 % of control

CCOC(=O)c1ccc(NC(=O)Nc2n[nH]c(NC(=O)Nc3ccc(C(=O)OCC)cc3)n2)cc1
inactive: dose: 12.5 mg/kg/injection, schedule: Q01DX009 (ip), vehicle: distilled water + Tween-80 95 % of control | dose: 25.0 mg/kg/injection, schedule: Q01DX009 (ip), vehicle: distilled water + Tween-80 114 % of control | dose: 50.0 mg/kg/injection, schedule: Q01DX009 (ip), vehicle: distilled water + Tween-80 89 % of control | dose: 100.0 mg/kg/injection, schedule: Q01DX009 (ip), vehicle: distilled water + Tween-80 88 % of control

Cc1cc2ccccc2c[n+]1C
inactive: dose: 1.56 mg/kg/injection, schedule: Q01DX009 (ip), vehicle: saline with Tween-80 105 % of control | dose: 3.12 mg/kg/injection, schedule: Q01DX009 (ip), vehicle: saline with Tween-80 102 % of control | dose: 6.25 mg/kg/injection, schedule: Q01DX009 (ip), vehicle: saline with Tween-80 96 % of control | dose: 12.5 mg/kg/injection, schedule: Q01DX009 (ip), vehicle: saline with Tween-80 105 % of control | dose: 12.5 mg/kg/injection, schedule: Q04DX003 (ip), vehicle: saline 100 % of control | dose: 25.0 mg/kg/injection, schedule: Q04DX003 (ip), vehicle: saline 100 % of control | dose: 50.0 mg/kg/injection, schedule: Q04DX003 (ip), vehicle: saline 100 % of control

CS(=O)(=O)OCCCCCCCCCCCC1C=CCC1 (centres undefined)
inactive: [8] 94 % of control | [9] 93 % of control | dose: 400.0 mg/kg/injection, schedule: Q04DX003 (ip), vehicle: saline 94 % of control

O=C1OCCC1(S)C(O)c1ccccc1 (centres undefined)
inactive: dose: 21.25 mg/kg/injection, schedule: Q01DX005 (ip), vehicle: acetone 103 % of control | dose: 42.5 mg/kg/injection, schedule: Q01DX005 (ip), vehicle: acetone 100 % of control | dose: 85.0 mg/kg/injection, schedule: Q01DX005 (ip), vehicle: acetone 103 % of control

O=C(O)CSCSCC(=O)O
inactive: [8] 100 % of control | [9] 104 % of control

Nc1nc(Cc2ccccc2)c(CCCNc2ccccc2)c(=O)[nH]1
inactive: dose: 0.78 mg/kg/injection, schedule: Q01DX009 (ip), vehicle: saline 100 % of control | dose: 1.56 mg/kg/injection, schedule: Q01DX009 (ip), vehicle: saline 100 % of control | dose: 3.13 mg/kg/injection, schedule: Q01DX009 (ip), vehicle: saline 102 % of control | dose: 6.25 mg/kg/injection, schedule: Q01DX009 (ip), vehicle: saline 100 % of control

Oc1ccc(Nc2ccc3[nH]c4ccccc4c3c2)cc1
inactive: [1] 101 % of control | [2] 106 % of control | [3] 104 % of control

COC1CC(OC2CCC3(C)C(=CCC4C3C(OC(C)=O)C(OC(=O)CC(C)C)C3(C)C(C(C)=O)CCC43O)C2)OC(C)C1OC1CC(OC)C(OC2CC(OC)C(OC3OC(C)C(OC4OC(CO)C(O)C(O)C4O)C(OC)C3O)C(C)O2)C(C)O1 (centres undefined)
inactive: dose: 4.13 mg/kg/injection, schedule: Q01DX005 (ip), vehicle: Klucel (hydroxypropylcellulose) (HPC) 95 % of control | dose: 8.25 mg/kg/injection, schedule: Q01DX005 (ip), vehicle: Klucel (hydroxypropylcellulose) (HPC) 101 % of control | dose: 16.5 mg/kg/injection, schedule: Q01DX005 (ip), vehicle: Klucel (hydroxypropylcellulose) (HPC) 101 % of control

Cc1ccc(NCCCC2CCCN3CCCCC23)c2c(=O)c3cc(O)ccc3sc12 (centres undefined)
inactive: dose: 25.0 mg/kg/injection, schedule: Q01DX001 (ip), vehicle: saline with Tween-80 99 % of control | dose: 50.0 mg/kg/injection, schedule: Q01DX001 (ip), vehicle: saline with Tween-80 98 % of control | dose: 100.0 mg/kg/injection, schedule: Q01DX001 (ip), vehicle: saline with Tween-80 100 % of control

CN(C)c1ccccc1[Si](C)(C)N(C)C
inactive: dose: 60.0 mg/kg/injection, schedule: Q01DX005 (ip), vehicle: saline 103 % of control | dose: 120.0 mg/kg/injection, schedule: Q01DX005 (ip), vehicle: saline 103 % of control | dose: 240.0 mg/kg/injection, schedule: Q01DX005 (ip), vehicle: saline 106 % of control

Nc1ncc(C2CO2)c(-c2ccccc2)n1 (centres undefined)
inactive: dose: 25.0 mg/kg/injection, schedule: Q01DX009 (ip), vehicle: Klucel (hydroxypropylcellulose) (HPC) 94 % of control | dose: 50.0 mg/kg/injection, schedule: Q01DX009 (ip), vehicle: Klucel (hydroxypropylcellulose) (HPC) 103 % of control | dose: 100.0 mg/kg/injection, schedule: Q01DX009 (ip), vehicle: Klucel (hydroxypropylcellulose) (HPC) 108 % of control
